The results in this text go back to patent publication US20180071296A1, “COMBINATION THERAPY COMPRISING AN INHIBITOR OF JAK, CDK, AND PIM” (Novartis AG, priority 2013, published 2018).

Holding throughout (assay type): in vivo
Test [1] has as its system Ba/F3-EpoR-JAK2^V617F cells. Put plainly: Total tumor load (bioluminescence, IVIS xenogen) in mouse MPN model. The conditions noted are these: study endpoint; for reduction of total tumor load (level of bioluminescence) relative to the vehicle control: first experiment, FIG. 1, Compound A 60 mg/kg PO BID, Compound B 75 mg/kg PO QD, alone or combined, SCID/Beige mice.
Source text: The combination of Compound A, Compound B and Compound C was examined in a mouse model of MPN. In this model, Ba/F3 cells harbored Epo Receptor and JAK2 V617F mutations. Ba/F3-EpoR-JAK2^V617F was engineered with a luciferase tag for experimental imaging. Female SCID/Beige mice were inoculated with 1x10e6 Ba/F3-EpoR-JAK2^V617F cells through the tail vein. Total tumor load was monitored with IVIS xenogen technology. It is defined as the sum of dorsal and ventral photon signal.
In the first experiment, disease-bearing mice were randomized into treatment cohorts, based on the disease burden. Mice were treated with vehicle, Compound B at 75 mg/kg, by oral gavage (PO) daily (QD), Compound A at 60 mg/kg, PO, twice daily (BID) and the combination of both agents.
In the second experiment, disease-bearing mice were randomized into treatment cohort, based on the disease burden. Mice were treated with vehicle, Compound A at 60 mg/kg, PO, twice daily (BID), and the triple combination of Compound A, Compound B (at 75 mg/kg, QD, PO) and Compound C (at 25 mg/kg, QD, PO).
Test [2] concerns Ba/F3-EpoR-JAK2^V617F cells. The test can be described thus: Spleen weight at study endpoint in mouse MPN model.
Procedure: (§1) The combination of Compound A, Compound B and Compound C was examined in a mouse model of MPN. In this model, Ba/F3 cells harbored Epo Receptor and JAK2 V617F mutations. Ba/F3-EpoR-JAK2^V617F was engineered with a luciferase tag for experimental imaging. Female SCID/Beige mice were inoculated with 1x10e6 Ba/F3-EpoR-JAK2^V617F cells through the tail vein. […] Additionally, JAK2V617F allele burden, defined as the relative ratio of JAK2V617F over wild type JAK2, is measured by taqman in PBMCs at study endpoint.
(§2) In the first experiment, disease-bearing mice were randomized into treatment cohorts, based on the disease burden. Mice were treated with vehicle, Compound B at 75 mg/kg, by oral gavage (PO) daily (QD), Compound A at 60 mg/kg, PO, twice daily (BID) and the combination of both agents. At study endpoint, spleen weight from each of the study cohorts was obtained. Relative change in the spleen weight was calculated by normalizing individual spleen weight against the mean spleen weight of the cohort receiving vehicle treatment.
In the second experiment, disease-bearing mice were randomized into treatment cohort, based on the disease burden. Mice were treated with vehicle, Compound A at 60 mg/kg, PO, twice daily (BID), and the triple combination of Compound A, Compound B (at 75 mg/kg, QD, PO) and Compound C (at 25 mg/kg, QD, PO). At study endpoint, spleen weight from each of the study cohorts was obtained. Relative spleen weight was calculated by normalizing individual spleen weight against the mean spleen weight of the cohort receiving vehicle treatment.
The test system of another test is JAK2V617F allele burden. The test can be described thus: JAK2V617F allele burden in PBMC (taqman) at study endpoint in mouse MPN model. The conditions noted are these: second experiment, FIG. 6, Compound A 60 mg/kg PO BID alone or with Compound B 75 mg/kg QD PO and Compound C 25 mg/kg QD PO. For orientation: In qPCR the cycle at which signal appears reflects the starting amount.

Where [3] appears, read: first experiment, FIG. 2, Compound A 60 mg/kg PO BID, Compound B 75 mg/kg PO QD, alone or combined.

Procedure for JAK2V617F allele burden: as §1, §2
In the second experiment, disease-bearing mice were randomized into treatment cohort, based on the disease burden. […] Relative spleen weight was calculated by normalizing individual spleen weight against the mean spleen weight of the cohort receiving vehicle treatment.

Regarding `N#CC[C@H](C1CCCC1)n1cc(-c2ncnc3[nH]ccc23)cn1` [Compound A, (3R)-3-cyclopentyl-3-[4-(7H-pyrrolo[2,3-d]pyrimidin-4-yl)pyrazol-1-yl]propanenitrile], in test [1], the “reduction of total tumor load (level of bioluminescence) relative to the vehicle control” value is reported as roughly 79%. The “reduction of total tumor load (level of bioluminescence)” value in test [1] (second experiment, FIG. 4, Compound A 60 mg/kg PO BID alone or with Compound B 75 mg/kg QD PO and Compound C 25 mg/kg QD PO) was roughly 70%. Moreover, the “reduction of spleen weight relative to that of the vehicle control” value in test [2] (setting [3]) is given as roughly 62%; in test [2] (second experiment, FIG. 5, Compound A 60 mg/kg PO BID alone or with Compound B 75 mg/kg QD PO and Compound C 25 mg/kg QD PO), roughly 53%. In the test on JAK2V617F allele burden, the “down-modulation of JAK2V617F allele burden” value is roughly 15%.

`CN(C)C(=O)c1cc2cnc(Nc3ccc(N4CCNCC4)cn3)nc2n1C1CCCC1` [Compound B, 7-Cyclopentyl-2-(5-piperazin-1-yl-pyridin-2-ylamino)-7H-pyrrolo[2,3-d]pyrimidine-6-carboxylic acid dimethylamide]: in test [1], the “reduction of total tumor load (level of bioluminescence) relative to the vehicle control” value is roughly 77%. Moreover, in test [2] (setting [3]), the “reduction of spleen weight relative to that of the vehicle control” value was roughly 38%.
